In US11649232B2, “Synthetic dimeric cinchona alkaloids against cancer” (Ares Pharmaceuticals, LLC, priority 2021, dated 2023):
Like-named read-outs stand apart in the source and are kept apart here.

How the values were obtained:
[1] = Flow cytometric Annexin V-FITC/PI apoptosis assay, combined data sets; type: cell-based; settings: Homo sapiens, Raji, 24 or 48 hours treatment, 0.5-50 μM, read-out: estimated IC50 (apoptosis)
Description: (§1) Cell lines and Apoptosis Assays. We used the human leukemia cell lines ALL-1 (Ph+ adult ALL, B-lineage), LOUCY (adult T-lineage ALL; ATCC® CRL-2629™), and RAJI (Burkitt's leukemia/lymphoma; ATCC®, CCL-86) as targets to evaluate the anti-leukemic activity of cinchona alkaloids. In vivo leukemia initiating xenograft clones capable of causing disseminated and fatal leukemia in NOD-SCID mice, derived from primary leukemia cells of 5 patients with relapsed ALL, and the aforementioned 3 leukemia cells lines were treated for 24 hours or 48 hours at 37° C. with cinchona alkaloids at increasing concentrations ranging from 0.5 μM to 50 μM. Controls cells were treated with vehicle (PBS).
Apoptotic death was monitored using multiparameter flow cytometry, as previously reported (Uckun, F. M. et al., British Journal of Haematology, 2011, 153:741-752; Uckun, F. M. et al., J Clin Invest., 2015, 125:1006-18). Controls included vehicle (PBS) treated cells (CON). Cells were analyzed for apoptosis using the standard quantitative flow cytometric apoptosis assay using the Annexin V-FITC Apoptosis Detection Kit from Sigma. The labeled cells were analyzed on a LSR II flow cytometer. The percent apoptosis was calculated using the formula: 100−100×(Percentage of non-apoptotic cells in test sample/Percentage of non-apoptotic cells in untreated control sample). […]

[2] = test system: PC-3 castration-resistant prostate cancer cell line; test: Clonogenic assay (methylcellulose colony assay); type: cell-based, human; settings: for inhibition at 3 µM / IC50 / inhibition at 1 µM / inhibition at 10 µM: Homo sapiens
Method: (§2) Clonogenic Assays. The cytotoxicity of cinchona alkaloids was tested against clonogenic human cancer cells was examined using a methylcellulose colony assay system, as described previously (Uckun, F. M. et al., J. Exp. Med., 1986, 163: 347-68; Uckun, F. M. et al., J. Clin. Invest., 1993, 91: 1044-1051). In brief, cells (10^5 cells/ml in RPMI-10% fetal bovine serum) were treated for 8 hours at 37° C. with cinchona alkaloids at varying concentrations. After treatment, cells were washed twice, and resuspended in clonogenic medium consisting of RPMI 1640 supplemented with 0.9% methylcellulose, 10% fetal bovine serum, and 50 μM 2-mercaptoethanol. Cells were plated at 5×10^4 cells/ml in RPMI 1640 supplemented with 10% fetal bovine serum, and 0.9% methylcellulose in duplicate 35-mm Petri dishes, and cultured for 7 days at 37° C. in a humidified 5% CO2 incubator. Subsequently, cancer cell colonies were enumerated on a grid using an inverted phase-contrast microscope of high optical resolution. Results were expressed as the % Inhibition=[1−(Number of colonies in compound-treated test cultures/Number of colonies in vehicle-treated control cultures)]×100.
as §2, with “cytotoxicity of synthetic dimeric cinchona alkaloids” for “cytotoxicity of cinchona alkaloids”

[3] = test system: BT-20 triple-negative breast cancer cell line; test: Clonogenic assay (methylcellulose colony assay); type: cell-based, human
Method: as §2
as §2, with “cytotoxicity of synthetic dimeric cinchona alkaloids” for “cytotoxicity of cinchona alkaloids”

[4] = test system: ALL-1 BCR-ABL/Ph+ B-lineage ALL cell line; test: Clonogenic assay (methylcellulose colony assay); type: cell-based, human; settings: for in vitro colony formation by ALL-1 cells: 10 μM
Method: as §2
as §2, with “cytotoxicity of synthetic dimeric cinchona alkaloids” for “cytotoxicity of cinchona alkaloids”

BT-20 and PC-3 cells = test: Clonogenic assay, pooled 4 experiments (2 PC-3, 2 BT-20); type: cell-based, human
Method: as §2
as §2, with “cytotoxicity of synthetic dimeric cinchona alkaloids” for “cytotoxicity of cinchona alkaloids”

[5] = test system: LOUCY (adult T-lineage ALL) cell line; test: Flow cytometric Annexin V-FITC/PI apoptosis assay; type: cell-based, human; settings: for IC50: Homo sapiens, read-out: IC50 (apoptosis)
Description: as §1
(§3) Apoptotic death was monitored using multiparameter flow cytometry, as previously reported (Uckun, F. M. et al., British Journal of Haematology, 2011, 153:741-752; Uckun, F. M. et al., J Clin Invest., 2015, 125:1006-18). Controls included vehicle (PBS) treated cells (CON). Cells were analyzed for apoptosis using the standard quantitative flow cytometric apoptosis assay using the Annexin V-FITC Apoptosis Detection Kit from Sigma. The labeled cells were analyzed on a LSR II flow cytometer. The percent apoptosis was calculated using the formula: 100−100×(Percentage of non-apoptotic cells in test sample/Percentage of non-apoptotic cells in untreated control sample). The percentages for Annexin V FITC^−PI^− viable cells and Annexin V-FITC^+PI^+ advanced apoptotic cells for each sample are indicated in the respective quadrants of the depicted two-color fluorescence dot plots.
as §1, with “We” for “Cell lines and Apoptosis Assays. We”, “ARES-BI-C001453. […]” for “cinchona alkaloids.”, “ARES-BI-C001453” for “cinchona alkaloids”

[6] = test system: ALL-1 (Ph+ adult ALL, B-lineage) cell line; test: Flow cytometric Annexin V-FITC/PI apoptosis assay; type: cell-based, human; settings: for IC50: Homo sapiens, read-out: IC50 (apoptosis)
Description: as §1, §3
as §1, with “We” for “Cell lines and Apoptosis Assays. We”, “ARES-BI-C001453. […]” for “cinchona alkaloids.”, “ARES-BI-C001453” for “cinchona alkaloids”

[7] = test system: RAJI (Burkitt's leukemia/lymphoma) cell line; test: Flow cytometric Annexin V-FITC/PI apoptosis assay; type: cell-based, human; settings: for IC50: Homo sapiens, read-out: IC50 (apoptosis)
Description: as §1, §3
as §1, with “We” for “Cell lines and Apoptosis Assays. We”, “ARES-BI-C001453. […]” for “cinchona alkaloids.”, “ARES-BI-C001453” for “cinchona alkaloids”

CCC1(O)CCN2CCC1C[C@@H]2[C@@H](Oc1nnc(O[C@H](c2ccnc3ccc(OC)cc23)[C@@H]2N3CC[C@H]4C(O)(CC)CC243)c2ccccc12)c1ccnc2ccc(OC)cc12 (mixture of isomers) [ARES-BI-C001453]
IC50 [1]: 8600 nM | inhibition at 3 µM ([2]; PC-3, PC3 cells, 3 μM, read-out: inhibition of clonogenic growth): > 99% | IC50 ([2]; PC-3, PC3 cells, read-out: estimated IC50, clonogenic growth): 129 nM | inhibition at 1 µM ([2]; PC-3 EXP#1, 1 μM): 91.9% | inhibition at 3 µM ([2]; PC-3 EXP#1, 3 μM, read-out: % Inhibition): 99.7% | inhibition at 10 µM ([2]; PC-3 EXP#1, 10 μM): 99.5% | inhibition at 1 µM ([2]; PC-3 EXP#2, 1 μM): 95.6% | inhibition at 3 µM ([2]; PC-3 EXP#2, 3 μM, read-out: % Inhibition): 99.4% | inhibition at 10 µM ([2]; PC-3 EXP#2, 10 μM): 99.4% | IC50 ([2]; PC-3, two independent experiments, non-linear regression, read-out: IC50, inhibition of clonogenic growth): 56 nM | Colonies/5 × 10^4 Cells ([2]; PC-3 EXP#1, 1 μM): 15.0 Colonies/5 × 10^4 Cells | Colonies/5 × 10^4 Cells ([2]; PC-3 EXP#1, 3 μM): 0.5 Colonies/5 × 10^4 Cells | Colonies/5 × 10^4 Cells ([2]; PC-3 EXP#1, 10 μM): 1.0 Colonies/5 × 10^4 Cells | Colonies/5 × 10^4 Cells ([2]; PC-3 EXP#2, 1 μM): 7.0 Colonies/5 × 10^4 Cells | Colonies/5 × 10^4 Cells ([2]; PC-3 EXP#2, 3 μM): 1 Colonies/5 × 10^4 Cells | Colonies/5 × 10^4 Cells ([2]; PC-3 EXP#2, 10 μM): 1 Colonies/5 × 10^4 Cells | Colonies/5 × 10^4 Cells ([3]; BT-20 EXP#1, 1 μM): 21.5 Colonies/5 × 10^4 Cells | Colonies/5 × 10^4 Cells ([3]; BT-20 EXP#1, 3 μM): 10.0 Colonies/5 × 10^4 Cells | Colonies/5 × 10^4 Cells ([3]; BT-20 EXP#1, 10 μM): 0.0 Colonies/5 × 10^4 Cells | Colonies/5 × 10^4 Cells ([3]; BT-20 EXP#2, 1 μM): 40.0 Colonies/5 × 10^4 Cells | Colonies/5 × 10^4 Cells ([3]; BT-20 EXP#2, 3 μM): 9.5 Colonies/5 × 10^4 Cells | Colonies/5 × 10^4 Cells ([3]; BT-20 EXP#2, 10 μM): 1.0 Colonies/5 × 10^4 Cells | inhibition at 1 µM ([3]; Homo sapiens, BT-20, BT-20 EXP#1, 1 μM): 78% | inhibition at 3 µM ([3]; Homo sapiens, BT-20, BT-20 EXP#1, 3 μM): 89.8% | inhibition at 10 µM ([3]; Homo sapiens, BT-20, BT-20 EXP#1, 10 μM): > 98.9% | inhibition at 1 µM ([3]; Homo sapiens, BT-20, BT-20 EXP#2, 1 μM): 64.9% | inhibition at 3 µM ([3]; Homo sapiens, BT-20, BT-20 EXP#2, 3 μM): 91.7% | inhibition at 10 µM ([3]; Homo sapiens, BT-20, BT-20 EXP#2, 10 μM): 99.1% | IC50 ([3]; Homo sapiens, BT-20, two independent experiments, non-linear regression, read-out: IC50, inhibition of clonogenic growth): 369 nM | in vitro colony formation by ALL-1 cells [4]: abrogated the in vitro colony formation | Colonies/5 × 10^4 Cells ([4]; ALL-1 EXP#1, 1 μM): 27.5 Colonies/5 × 10^4 Cells | Colonies/5 × 10^4 Cells ([4]; ALL-1 EXP#1, 3 μM): 32.0 Colonies/5 × 10^4 Cells | Colonies/5 × 10^4 Cells ([4]; ALL-1 EXP#1, 10 μM): 0.0 Colonies/5 × 10^4 Cells | Colonies/5 × 10^4 Cells ([4]; ALL-1 EXP#2, 1 μM): 99.5 Colonies/5 × 10^4 Cells | Colonies/5 × 10^4 Cells ([4]; ALL-1 EXP#2, 3 μM): 14.5 Colonies/5 × 10^4 Cells | Colonies/5 × 10^4 Cells ([4]; ALL-1 EXP#2, 10 μM): 0.0 Colonies/5 × 10^4 Cells | inhibition at 1 µM ([4]; Homo sapiens, ALL-1 EXP#1, 1 μM): 91.5% | inhibition at 3 µM ([4]; Homo sapiens, ALL-1 EXP#1, 3 μM): 90.1% | inhibition at 10 µM ([4]; Homo sapiens, ALL-1 EXP#1, 10 μM): > 99.7% | inhibition at 1 µM ([4]; Homo sapiens, ALL-1 EXP#2, 1 μM): 56.1% | inhibition at 3 µM ([4]; Homo sapiens, ALL-1 EXP#2, 3 μM): 93.6% | inhibition at 10 µM ([4]; Homo sapiens, ALL-1 EXP#2, 10 μM): > 99.6% | IC50 ([4]; Homo sapiens, ALL-1, two independent experiments, non-linear regression, read-out: IC50, inhibition of clonogenic growth): 290 nM | mean number of residual clones forming colonies (BT-20 and PC-3 cells; 1 μM, BT-20 and PC-3): 20.9±5.3 /5×10^4 cells | inhibition at 1 µM (BT-20 and PC-3 cells; Homo sapiens, 1 μM, 4 experiments (2 PC-3, 2 BT-20), read-out: inhibition of clonogenic growth (mean±SE)): 82.6 ± 8.1% | inhibition at 10 µM (BT-20 and PC-3 cells; Homo sapiens, 10 μM, BT-20 and PC-3, read-out: inhibition of clonogenic growth (mean±SE)): 99.2 ± 0.2% | IC50 ([5]; LOUCY, side by side comparison): 42 nM | IC50 ([6]; ALL-1, side by side comparison): 780 nM | IC50 ([7]; RAJI, side by side comparison): 8900 nM

CCC1CN2CCC1CC2C(Oc1nnc(OC(c2ccnc3ccc(OC)cc23)C2CC3CCN2CC3CC)c2ccccc12)c1ccnc2ccc(OC)cc12 (centres unmarked) [Compound C61, 1,4-Bis (9-O dihydroquinidinyl)phthalazine/hydroquinidine 1,4-phathalazinediyl diether, reference compound]
inhibition of clonogenic growth ([2]; PC3 cells, 10 μM): 67.7% | % Inhibition ([2]; PC-3 EXP#1, 10 μM): 77.9% | Colonies/5 × 10^4 Cells ([2]; PC-3 EXP#1, 10 μM): 41.0 Colonies/5 × 10^4 Cells | % Inhibition ([2]; PC-3 EXP#2, 10 μM): 57.5% | Colonies/5 × 10^4 Cells ([2]; PC-3 EXP#2, 10 μM): 67.0 Colonies/5 × 10^4 Cells | % Inhibition ([3]; BT-20 EXP#1, 10 μM): 45.9% | Colonies/5 × 10^4 Cells ([3]; BT-20 EXP#1, 10 μM): 53.0 Colonies/5 × 10^4 Cells | % Inhibition ([3]; BT-20 EXP#2, 10 μM): 31.6% | Colonies/5 × 10^4 Cells ([3]; BT-20 EXP#2, 10 μM): 78.0 Colonies/5 × 10^4 Cells | in vitro colony formation by ALL-1 cells [4]: abrogated the in vitro colony formation | % Inhibition ([4]; ALL-1 EXP#1, 10 μM): >99.7% | Colonies/5 × 10^4 Cells ([4]; ALL-1 EXP#1, 10 μM): 0.0 Colonies/5 × 10^4 Cells | % Inhibition ([4]; ALL-1 EXP#2, 10 μM): >99.6% | Colonies/5 × 10^4 Cells ([4]; ALL-1 EXP#2, 10 μM): 0.0 Colonies/5 × 10^4 Cells | inhibition of clonogenic growth (mean±SE) (BT-20 and PC-3 cells; 10 μM, BT-20 and PC-3): 53.2±11.3% | mean number of residual clones forming colonies (BT-20 and PC-3 cells; 10 μM, BT-20 and PC-3): 59.8±6.3 /5×10^4 cells

CCC1CC23[C@H]([C@H](Oc4nnc(O[C@@H](c5ccnc6ccc(OC)cc56)[C@H]5CC6CCN5CCC6(O)CC)c5ccccc45)c4ccnc5ccc(OC)cc45)N2CC[C@@H]13 (some centres unmarked) [ARES-BI-C002453]
IC50 [5]: 1500 nM | fold higher IC50 value than ARES-BI-C001453 ([5]; LOUCY): 35.7 fold | fold higher IC50 value than ARES-BI-C001453 ([6]; ALL-1): 9.4 fold | IC50 [6]: 7300 nM | IC50 ([7]; Raji): 16700 nM | fold higher IC50 value than ARES-BI-C001453 ([7]; RAJI): 1.9 fold
